PubChem BioAssay (NCI)
“And” between values parts separate entries of the source, which are not always exact repeats. Identical values can stand only once.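 Cells were grown in 96-well plates and exposed to each compound for 48 hours at five concentrations; endpoints were interpolated linearly between bracketing concentrations, or set to the highest concentration if not reached. At the GI50, growth is halved. The concentration for full growth arrest is given as TGI.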

How the values were obtained:
Test in all cases: NCI tumour cell line growth inhibition, 48 h
MALME-3M melanoma = system: MALME-3M melanoma
HCT-15 colon = system: HCT-15 colon
COLO 205 colon = system: COLO 205 colon
786-0 renal = system: 786-0 renal
SN12C renal = system: SN12C renal
SK-MEL-28 melanoma = system: SK-MEL-28 melanoma
HCT-116 colon = system: HCT-116 colon
A549 NSCLC = system: A549 NSCLC
SW-620 colon = system: SW-620 colon
RPMI-8226 leukemia = system: RPMI-8226 leukemia

Row | Compound | GI50 (MALME-3M melanoma) [µM] | TGI (MALME-3M melanoma) [µM] | TGI (HCT-15 colon) [µM] | GI50 (COLO 205 colon) [nM] | TGI (COLO 205 colon) | GI50 (786-0 renal) [nM] | TGI (786-0 renal) [µM] | GI50 (SN12C renal) [µM] | TGI (SN12C renal) [µM] | GI50 (SK-MEL-28 melanoma) [nM] | TGI (SK-MEL-28 melanoma) [µM] | GI50 (HCT-116 colon) [nM] | TGI (HCT-116 colon) [µM] | GI50 (A549 NSCLC) [nM] | TGI (A549 NSCLC) [µM] | GI50 (SW-620 colon) [nM] | TGI (SW-620 colon) [µM] | GI50 (RPMI-8226 leukemia) [nM] | TGI (RPMI-8226 leukemia) [µM] | GI50 (HCT-15 colon) [nM]
1 | CCCCCCCCCCCCC(=O)OC(c1cnco1)c1nc(C(O)CC(O)C(O)C(C)O)co1 (centres undefined) | 3.61 | > 100 | > 100 | 587 | 1.98 µM and 3.52 µM | 1020 | > 100 | 4.09 | > 100 | 686 | > 64.2 | 459 | > 100 | 880 | > 100 | 566 | > 62.7 | 694 | 29.2 | 
2 | FC(F)(F)c1nc(-c2ccccc2Cl)[nH]c1C(F)(F)F |  | 2.75 | 3.52 |  | 0.971 µM |  | 4.73 |  | 3.14 |  | 5.32 |  | 2.15 |  | 3.06 |  | 6.63 |  | 25.2 | 
3 | N#CC1(c2nc3ccccc3o2)C(=O)C(=O)N(C2C3CC4CC(C3)CC2C4)C(=O)C1=O (centres undefined) |  | > 100 | > 100 |  | > 100 µM |  | > 100 |  | > 100 |  | > 100 |  | > 100 |  | > 100 |  | > 100 |  | > 100 | 
4 | CC(C)(C)OC(=O)NC(Cc1ccccc1)C(=O)OCN1C(=O)C2C3C=CC(C2C1=O)C1C2C(=O)N(COC(=O)C(Cc4ccccc4)NC(=O)OC(C)(C)C)C(=O)C2C31 (centres undefined) |  | > 100 | > 100 |  | 28.7 µM |  | > 100 |  | > 100 |  | > 100 |  | > 88.5 |  | > 73.8 |  | > 100 |  | > 100 | 
5 | Cc1nn(-c2ccc(F)cc2)c2ncnc(Nc3ccc(NC(=O)Nc4ccc(Cl)c(C(F)(F)F)c4)cc3)c12 | 1.76 | 4.21 | 12.5 | 1870 | 3.95 µM | 1980 | 5.85 | 2.07 | 5.56 | 2180 | 5.68 | 1510 | 5.07 | 1800 | 4.26 | 2930 | 10.8 | 1710 | 9.54 | 2730
6 | C=CC(=O)N[C@H]1C=C(C)c2c(-c3cnc4ccccc4c3)c3c(N)ncnc3n2C1 | 11.6 | 25.7 | > 80.3 | 15400 | 43.8 µM | 5140 | 36.8 | 12.9 | 98.2 | 19300 | 68.6 | 13200 | 34.7 | 11600 | > 67 | 23800 | > 95.5 | 17900 | 60.6 | 23100
7 | CCN1CCN(c2nc(NCCCNc3ccnc4cc(Cl)ccc34)c3ccccc3n2)CC1 | 1.78 | 3.45 | 10.9 | 1660 | 3.46 µM | 2180 | 5.82 | 2.6 | 11.5 | 1910 | 3.9 | 2250 | 6.53 | 2840 | 11.9 | 2360 | 7.63 | 2120 | 6.04 | 2600
8 | O=C(Nc1nc2ccccc2s1)OCC(F)(F)F | > 100 | > 100 | > 100 | > 100000 | > 100 µM | > 100000 | > 100 | > 100 | > 100 | > 100000 | > 100 | > 100000 | > 100 | > 100000 | > 100 | > 100000 | > 100 | > 100000 | > 100 | > 100000
